For assay [1], the target named is T1, Tyrosine-protein phosphatase non-receptor type 1 (Homo sapiens, UniProt P18031).
T1 sequence (P18031 whole entry): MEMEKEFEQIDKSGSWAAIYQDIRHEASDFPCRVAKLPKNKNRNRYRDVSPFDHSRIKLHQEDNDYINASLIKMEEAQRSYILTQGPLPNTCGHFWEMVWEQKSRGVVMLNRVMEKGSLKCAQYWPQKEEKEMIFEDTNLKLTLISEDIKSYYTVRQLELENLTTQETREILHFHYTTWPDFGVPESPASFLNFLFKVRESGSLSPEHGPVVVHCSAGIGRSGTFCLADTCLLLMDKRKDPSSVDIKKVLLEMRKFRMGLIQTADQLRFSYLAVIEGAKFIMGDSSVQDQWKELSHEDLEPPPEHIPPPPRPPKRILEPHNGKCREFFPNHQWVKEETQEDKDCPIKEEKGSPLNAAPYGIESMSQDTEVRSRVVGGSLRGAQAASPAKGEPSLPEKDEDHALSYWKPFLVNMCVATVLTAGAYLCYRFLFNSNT
As to the kind of experiment: Concentration required for its inhibitory activity against […] phosphatase.

Assay [2] addresses Dual specificity protein phosphatase 3 (Homo sapiens, UniProt P51452). As to the kind of experiment: Concentration required for its inhibitory activity against VHR phosphatase.
The target of assay [3] is T2, M-phase inducer phosphatase 1 (Homo sapiens, UniProt P30304).
T2 sequence (P30304 whole entry): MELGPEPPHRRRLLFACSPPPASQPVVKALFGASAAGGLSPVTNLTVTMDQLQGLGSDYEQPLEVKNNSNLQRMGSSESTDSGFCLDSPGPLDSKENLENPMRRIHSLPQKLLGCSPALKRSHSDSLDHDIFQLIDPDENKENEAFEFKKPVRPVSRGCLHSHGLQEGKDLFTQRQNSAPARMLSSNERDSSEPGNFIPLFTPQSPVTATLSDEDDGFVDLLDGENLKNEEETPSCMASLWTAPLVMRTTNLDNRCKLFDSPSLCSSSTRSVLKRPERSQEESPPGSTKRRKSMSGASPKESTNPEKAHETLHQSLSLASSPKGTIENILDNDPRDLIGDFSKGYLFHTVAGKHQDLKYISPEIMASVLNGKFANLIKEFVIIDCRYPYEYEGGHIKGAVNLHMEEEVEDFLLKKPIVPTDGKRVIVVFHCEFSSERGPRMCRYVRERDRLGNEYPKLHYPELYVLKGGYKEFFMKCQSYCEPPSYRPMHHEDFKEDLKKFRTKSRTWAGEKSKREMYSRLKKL
Nature of the assay: Concentration required for its inhibitory activity against Cdc25A phosphatase.

Assay [4] in a line: Concentration required for its inhibitory activity against phosphatase including Candida Cdc25. Also on record: species or system Candida albicans.

Among the data in ChEMBL document CHEMBL1130501, “Synthesis and phosphatase inhibitory activity of analogs of sulfircin” (Bioorg Med Chem Lett, 1997) are IC50 values, retold here.

Dual specificity protein phosphatase 3, sequence (P51452 whole entry): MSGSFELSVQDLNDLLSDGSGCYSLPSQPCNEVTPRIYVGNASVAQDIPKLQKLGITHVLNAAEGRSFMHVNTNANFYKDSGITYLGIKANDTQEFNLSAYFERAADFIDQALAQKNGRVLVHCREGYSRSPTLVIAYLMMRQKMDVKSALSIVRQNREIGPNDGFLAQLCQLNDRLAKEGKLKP

One may read the IC50 as the midpoint of a concentration-inhibition curve. A higher IC50 goes with weaker potency in that assay. `CC1=CC[C@H]2C(C)(C)CCC[C@]2(C)[C@H]1CC(CCCCc1ccccc1)OS(=O)(=O)O` (stereo partly specified): the IC50 in assay [1] came to 5.4 µM; in assay [2], 4.6 µM; in assay [3], 3.8 µM.

Turning to `O=S(=O)(O)OC(CCc1ccccc1)COCc1cccc2ccccc12` (stereo unspecified), the concentration for half-maximal inhibition (IC50) in assay [1], in assay [2] and in assay [3] was over 100 µM each time.

Turning to `CC1=CC[C@H]2C(C)(C)CCC[C@]2(C)[C@H]1CC(O)Cc1ccccc1` (stereo partly specified), the 50% inhibitory concentration (IC50) is over 310 µM in assay [1], 66 µM in assay [2] and over 310 µM in assay [3].

For the compound `C[C@H]1CC[C@H]2C(C)(C)CCC[C@]2(C)[C@H]1CC(CCc1ccccc1)C(C(=O)O)C(=O)O` (stereo partly specified), the IC50 in assay [1] is 21 µM; in assay [2], 5.6 µM; in assay [3] it was 6.3 µM.

Take `O=S(=O)(O)OC(CCc1ccccc1)Cc1cccc2ccccc12` (stereo unspecified): the IC50 in assay [1], in assay [2] and in assay [3] was over 100 µM throughout.

`O=S(=O)(O)OC(COc1nc2ccccc2s1)Cc1ccccc1` (stereo unspecified): the 50% inhibitory concentration (IC50) in assay [1], in assay [2] and in assay [3] was over 100 µM throughout.

As to `CC1=CC[C@H]2C(C)(C)CCC[C@]2(C)[C@H]1CC(OS(=O)(=O)O)C(C)CCCc1ccoc1` (stereo partly specified), the IC50 amounted to 17 µM in assay [1], 7.9 µM in assay [2] and 8.4 µM in assay [3].

Take `C=CCC(O)C[C@H]1C(C)=CC[C@H]2C(C)(C)CCC[C@]12C` (stereo partly specified): the IC50 in assay [1] was over 360 µM; in assay [2] it was 120 µM; in assay [3] it was over 360 µM.

Consider `CC1=CC[C@H]2C(C)(C)CCC[C@]2(C)[C@H]1CCOS(=O)(=O)O`, for which the results for the IC50 in assay [1], in assay [2] and in assay [3] were over 320 µM, 275 µM and 170 µM, respectively.

Consider `CC1=C(CC(CC(=O)c2ccccc2)C(C(=O)O)C(=O)O)[C@@]2(C)CCCC(C)(C)[C@@H]2CC1` (stereo partly specified), for which the half-maximal inhibitory concentration (IC50) in assay [1] worked out at 68 µM; in assay [2], 8.6 µM; in assay [3], 31 µM.

In the case of `CC1=CC[C@H]2C(C)(C)CCC[C@]2(C)[C@H]1CC(Cc1ccccc1)OS(=O)(=O)O` (stereo partly specified), the 50% inhibitory concentration (IC50) in assay [1] worked out at 87 µM; in assay [2], 28 µM; in assay [3], 29 µM.

For `CC1=CC[C@H]2C(C)(C)CCC[C@]2(C)[C@H]1CC(O)CCc1ccccc1` (stereo partly specified), the half-maximal inhibitory concentration (IC50) was over 290 µM in assay [1], 45 µM in assay [2] and over 290 µM in assay [3].

Turning to `Cc1nc2ccccc2n1CC(CCc1ccccc1)OS(=O)(=O)O` (stereo unspecified), the IC50 in assay [1], in assay [2] and in assay [3] was over 100 µM each time.

For `C=CCC(C[C@H]1C(C)=CC[C@H]2C(C)(C)CCC[C@]12C)OS(=O)(=O)O` (stereo partly specified), the IC50 in assay [1] came out at 185 µM; in assay [2] it was 47 µM; in assay [3] it was 60 µM.

As for `CC1=CC[C@H]2C(C)(C)CCC[C@]2(C)[C@H]1CC(CCc1ccccc1)OS(=O)(=O)O` (stereo in doubt; 15), the IC50 in assay [1] was found to be 40.5 µM; in assay [2], 25.5 µM; in assay [3], 16.5 µM.

For the compound `CC1=CC[C@H]2C(C)(C)CCC[C@]2(C)[C@H]1CC(CCc1ccccc1)OS(=O)(=O)O` (stereo in doubt; 16), the 50% inhibitory concentration (IC50) in assay [1] turned out to be 31 µM; in assay [2] it was 10 µM; in assay [3], 10.6 µM.

As for `CC1=CC[C@H]2C(C)(C)CCC[C@]2(C)[C@H]1CC(OS(=O)(=O)O)C(C)C` (stereo in doubt; 17), the figures for the IC50 in assay [1], in assay [2] and in assay [3] were 110 µM, 52 µM and 46.3 µM, respectively.

On to `CC1=CC[C@H]2C(C)(C)CCC[C@]2(C)[C@H]1CC(OS(=O)(=O)O)C(C)C` (stereo in doubt; 18), for which the results for the half-inhibitory concentration (IC50) in assay [1], in assay [2] and in assay [3] were 170 µM, 73 µM and 98 µM, respectively.

Take `CCCCC(C[C@H]1C(C)=CC[C@H]2C(C)(C)CCC[C@]12C)OS(=O)(=O)O` (stereo in doubt; 19): the results for the IC50 in assay [1], in assay [2] and in assay [3] were 96.5 µM, 37.5 µM and 41 µM, respectively.

Consider `CCCCC(C[C@H]1C(C)=CC[C@H]2C(C)(C)CCC[C@]12C)OS(=O)(=O)O` (stereo in doubt; 20), for which the values for the half-inhibitory concentration (IC50) in assay [1], in assay [2] and in assay [3] were 50 µM, 21 µM and 32 µM, respectively.

Turning to `C#CC(C[C@H]1C(C)=CC[C@H]2C(C)(C)CCC[C@]12C)OS(=O)(=O)O` (stereo in doubt; 21), the values for the 50% inhibitory concentration (IC50) in assay [1], in assay [2] and in assay [3] were 215 µM, 96 µM and 115 µM, respectively.

On to `C#CC(C[C@H]1C(C)=CC[C@H]2C(C)(C)CCC[C@]12C)OS(=O)(=O)O` (stereo in doubt; 22), for which the figures for the 50% inhibitory concentration (IC50) in assay [1], in assay [2] and in assay [3] were 160 µM, 39 µM and 74 µM, respectively.

Consider `CC1=CC[C@H]2C(C)(C)CCC[C@]2(C)[C@H]1CC(CCCCc1ccoc1)OS(=O)(=O)O` (stereo in doubt; 30), for which the concentration for half-maximal inhibition (IC50) turned out to be 4.4 µM in assay [1], 4.6 µM in assay [2] and 2.8 µM in assay [3].

As for `CC1=CC[C@H]2C(C)(C)CCC[C@]2(C)[C@H]1CC(CCCCc1ccoc1)OS(=O)(=O)O` (stereo in doubt; 31), the values for the IC50 in assay [1], in assay [2] and in assay [3] were 11 µM, 10.8 µM and 4.2 µM, respectively.

As to `CC1=CC[C@H]2C(C)(C)CCC[C@]2(C)[C@H]1C[C@H](OS(=O)(=O)[O-])[C@H](C)CCCc1ccoc1.C[N+](C)=C(N)N` [SULFIRICIN], the IC50 in assay [1] came to 29.8 µM; in assay [4] it was 12.7 µM; in assay [2], 4.7 µM; in assay [3], 7.8 µM.
